In the oligonucleotide strings, read from the 5' end, every base follows the letter of its sugar. An asterisk marks phosphorothioate; unmarked linkages are phosphodiester. Other units and linkages are bracketed, terminal groups are in braces. A string of capitals states the bases alone. d = 2'-deoxy (DNA)
Experiment: Phase I/II dose escalation study P-001: safety and tolerability (MTD, DLT, TEAE, SAE), i.v. infusion
Format: in vivo, human
Experimental: Over-expression of transforming growth factor-beta 2 (TGF-β2) is associated with poor prognosis and plays a key role for malignant progression of various tumors by inducing proliferation, metastasis, angiogenesis and immunosuppression. P-001 trial of trabedersen—Safety and Tolerability of AP 12009 (trabedersen), Administered I.V. in Patients With Advanced Tumors Known to Overproduce TGFβ2, was evaluated to determine if treatment with trabedersen primed the tumors to subsequent chemotherapy.
In the instant study, the primary objective was to determine the Maximum Tolerated Dose (MTD) and the Dose Limited Toxicity (DLT) of two cycles of trabedersen administered intravenously (i.v.) for either 7 days every other week (i.e. 7 days on/7 days off) or for 4 days every other week (4 days on/10 days off). The secondary objective included assessment of antitumor activity of trabedersen administered intravenously for either 7 days every other week (i.e. 7 days on/7 days off) or for 4 days every other week (4 days on/10 days off).
The escalation scheme of this study aimed to determinate the MTD of two cycles of trabedersen (so called ‘core study period’) administered as a continuous i.v. infusion for 7 days every other week (7-days-on/7-days-off) or for 4 days every other week (4-days-on/10-days-off).
In general, it was planned to enroll a cohort of at least 3 evaluable patients per treatment group. For each cohort, the safety data obtained until end of the core study period (period for DLT-assessment, Cycle 1 and Cycle 2) were assessed in an interim analysis and evaluated by a Data and Safety Monitoring Board (DSMB). […] If 2 of these 3 patients experienced a DLT, the number of evaluable patients for the subsequent treatment group was increased to 6 for further evaluation of toxicity. Patients who were withdrawn from the study due to adverse events (AEs) attributed to DLT by the treating clinician, were not replaced but were used to determine the MTD and to evaluate the safety of the study drug. If patients were withdrawn due to other reasons, they were replaced until the treatment group was complete.
The MTD was determined according to the following procedure: If 2 out of 3 patients of 1 cohort experienced a DLT, 3 more patients were enrolled in the same treatment group. If at least 1 of these additional 3 patients also met the toxicity criteria for a DLT, the MTD for two cycles was determined; otherwise the dose escalation was continued upon agreement with the DSMB. MTD for two cycles was then defined as the dose at which no more than 2 out of 3, or 2 out of 6 patients of the same treatment group experienced a DLT. This procedure was followed until the MTD was reached.
After dose escalation had been completed, an additional larger cohort of patients was enrolled and treated with a dose of 140 mg/m^2/day employing the 4-days-on/10-days-off schedule, with endorsement by the DSMB. This cohort was to include at least 12 patients with a histologically or cytologically confirmed diagnosis of stage III or IV pancreatic cancer, corresponding to AJCC 1997 stage IVa and IVb, respectively, and at least 12 patients with stage III or IV melanoma.
The safety population comprised of 61 patients, representing all patients for whom at least once a trabedersen infusion was started. According to the protocol, the MTD was determined according to the following procedure: if 2 out of 3 patients of one cohort experience dose-limiting toxicity, 3 more patients were enrolled in the same treatment group. If at least 1 more patient of this second cohort met the toxicity criteria, MTD for two cycles has been determined (otherwise escalation was continued). MTD for two cycles was then defined as the dose at which no more than 2 out of 3 or 2 out of 6 patients of the same treatment group experienced DLT. […] In the case that 2 patients of the first cohort experienced DLTs that clearly indicated attainment of the MTD, the second cohort could also be omitted. […]

[1] = 4-days-on and 10-days-off schedule
[2] = 4-days-on, 10-daysoff schedule (N = 44)
[3] = 7-days-on and 7-days-off schedule
[4] = 7-days-on, 7-daysoff schedule (N = 17)

## trabedersen: TGFβ2 specific phosphorothioate antisense oligodeoxynucleotide with the sequence 5′-CGGCATGTCTATTTTGTA-3′ (SEQ ID No: 1) (antisense dC*dG*dG*dC*dA*dT*dG*dT*dC*dT*dA*dT*dT*dT*dT*dG*dT*dA)
140 mg/m^2/day, 4-days-on and 10-days-off schedule, one patient
  DLT observed: dose-limiting Grade 3 upper gastrointestinal hemorrhage
240 mg/m^2/day, 7-days-on and 7-days-off, 2 Grade 3 thrombocytopenia, 1 Grade 3 maculopapular rash
  patients who experienced a DLT: 3 patients
[1]
  frequency of patients with TEAEs that led to treatment discontinuation: 15.9%
  patients with TEAEs that led to treatment discontinuation: 7 patients
[2]
  Any SAE: No. (%) of patients with SAE: 18 (40.9) No. (%) of patients
  Any SAE: No. of SAEs: 28 No. of SAEs
  Ascites: No. (%) of patients with SAE: 0 No. (%) of patients
  Cancer Pain: No. (%) of patients with SAE: 2 (4.5) No. (%) of patients
  Cancer Pain: No. of SAEs: 2 No. of SAEs
  Catheter related Infection: No. (%) of patients with SAE: 1 (2.3) No. (%) of patients
  Catheter related Infection: No. of SAEs: 1 No. of SAEs
  Cholangitis: No. (%) of patients with SAE: 3 (6.8) No. (%) of patients
  Cholangitis: No. of SAEs: 3 No. of SAEs
  Cholestasis: No. (%) of patients with SAE: 1 (2.3) No. (%) of patients
  Cholestasis: No. of SAEs: 1 No. of SAEs
  GI hemorrhage: No. (%) of patients with SAE: 1 (2.3) No. (%) of patients
  GI hemorrhage: No. of SAEs: 2 No. of SAEs
  Pneumonia: No. (%) of patients with SAE: 0 No. (%) of patients
  Upper GI hemorrhage: No. (%) of patients with SAE: 1 (2.3) No. (%) of patients
  Upper GI hemorrhage: No. of SAEs: 1 No. of SAEs
[3]
  frequency of patients with TEAEs that led to treatment discontinuation: 41.2%
  patients with TEAEs that led to treatment discontinuation: 7 patients
7-days-on and 7-days-off schedule, approx.
  daily dose of MTD: approx. 4 mg/kg/day
[4]
  Any SAE: No. (%) of patients with SAE: 12 (70.6) No. (%) of patients
  Any SAE: No. of SAEs: 28 No. of SAEs
  Ascites: No. (%) of patients with SAE: 3 (17.6) No. (%) of patients
  Ascites: No. of SAEs: 3 No. of SAEs
  Cancer Pain: No. (%) of patients with SAE: 0 No. (%) of patients
  Catheter related Infection: No. (%) of patients with SAE: 2 (11.8) No. (%) of patients
  Catheter related Infection: No. of SAEs: 2 No. of SAEs
  Cholangitis: No. (%) of patients with SAE: 1 (5.9) No. (%) of patients
  Cholangitis: No. of SAEs: 1 No. of SAEs
  Cholestasis: No. (%) of patients with SAE: 1 (5.9) No. (%) of patients
  Cholestasis: No. of SAEs: 1 No. of SAEs
  GI hemorrhage: No. (%) of patients with SAE: 2 (11.8) No. (%) of patients
  GI hemorrhage: No. of SAEs: 3 No. of SAEs
  Pneumonia: No. (%) of patients with SAE: 3 (17.6) No. (%) of patients
  Pneumonia: No. of SAEs: 3 No. of SAEs
  Upper GI hemorrhage: No. (%) of patients with SAE: 1 (5.9) No. (%) of patients
  Upper GI hemorrhage: No. of SAEs: 1 No. of SAEs
4 days on and 10 days off regimen, MTD not reached at highest dose tested
  Maximum Tolerated Dose (MTD): > 330 mg/m^2/d
7 days on and 7 days off regimen, continuous i.v. infusion, two cycles
  Maximum Tolerated Dose (MTD): 160 mg/m^2/d
Total (N = 61)
  Any SAE: No. (%) of patients with SAE: 30 (49.2) No. (%) of patients
  Any SAE: No. of SAEs: 56 No. of SAEs
  Ascites: No. (%) of patients with SAE: 3 (4.9) No. (%) of patients
  Ascites: No. of SAEs: 3 No. of SAEs
  Cancer Pain: No. (%) of patients with SAE: 2 (3.3) No. (%) of patients
  Cancer Pain: No. of SAEs: 2 No. of SAEs
  Catheter related Infection: No. (%) of patients with SAE: 3 (4.9) No. (%) of patients
  Catheter related Infection: No. of SAEs: 3 No. of SAEs
  Cholangitis: No. (%) of patients with SAE: 4 (6.6) No. (%) of patients
  Cholangitis: No. of SAEs: 4 No. of SAEs
  Cholestasis: No. (%) of patients with SAE: 2 (3.3) No. (%) of patients
  Cholestasis: No. of SAEs: 2 No. of SAEs
  GI hemorrhage: No. (%) of patients with SAE: 3 (4.9) No. (%) of patients
  GI hemorrhage: No. of SAEs: 3 No. of SAEs
  Pneumonia: No. (%) of patients with SAE: 3 (4.9) No. (%) of patients
  Pneumonia: No. of SAEs: 3 No. of SAEs
  Upper GI hemorrhage: No. (%) of patients with SAE: 2 (3.3) No. (%) of patients
  Upper GI hemorrhage: No. of SAEs: 2 No. of SAEs
All patients
  frequency of patients with TEAEs that led to treatment discontinuation: 23.0%
  patients with TEAEs that led to treatment discontinuation: 14 patients
  total of TEAEs that led to treatment discontinuation: 23 TEAEs
Colorectal cancer
  frequency of patients with TEAEs that led to treatment discontinuation: 40.0%
  patients with TEAEs that led to treatment discontinuation: 2 patients
melanoma
  frequency of patients with TEAEs that led to treatment discontinuation: 15.8%
  patients with TEAEs that led to treatment discontinuation: 3 patients
Pancreatic cancer
  frequency of patients with TEAEs that led to treatment discontinuation: 24.3%
  patients with TEAEs that led to treatment discontinuation: 9 patients
Whole study: 2 pancreatic carcinoma, 2 colorectal cancer
  patients for whom a DLT was proclaimed: 4 patients

Reference: patent publication US20170226518A1, “COMPOSITIONS AND METHODS FOR TREATING CANCER” (Autotelic LLC, priority 2016, published 2017)
